Test results as given in the NIST ThermoML archive (doi:10.1021/je700316s).
± gives the expanded uncertainty stated by the source.

Conditions: Liquid; for mass density: 298.15 K, 101.33 kPa, Pycnometric method
[1] = Ebulliometric method (Recirculating still)

SMILES | mass density [kg/m3] | Normal boiling temperature [1] [°C] | Normal boiling temperature [°C]
CCCCO [butan-1-ol] | 805.8 ± 0.7 | 117.70 ± 0.2 | 
CCO [ethanol] | 785.2 ± 0.7 |  | 78.29 ± 0.2
CCCO [propan-1-ol] | 799.6 ± 0.7 | 97.06 ± 0.2 | 
CC(C)O [propan-2-ol] | 780.8 ± 0.7 | 82.2 ± 0.2 | 
